Consider 35 compounds from patent US5047406A, “Substituted cyclohexanols as central nervous system agents” (Warner-Lambert Co., priority 1990, dated 1991).

SMILES strings stand for the structures. Read-outs that look alike come from different tables or passages of the source.

For experiment [1], the target named is T1, [^3 H]-Spiroperidol Binding (Homo sapiens, UniProt P14416).
T1 construct: receptor assay described by D. Grigoriadis and P. Seeman, Journal of Neurochemistry, Volume 44, pages 1925-1935 (1985); from tissue
The experiment is described as follows: Inhibition of [^3 H]-spiroperidol binding in a receptor assay. From the text: (§1) The above test methods are incorporated herein by reference.

Experiment [2] relates to Locomotor Activity in Mice. Briefly: Inhibition of locomotor activity in mice. The class given is in vivo. As to conditions: for Inhibition of Locomotor Activity in Mice ED50: IP; for ED50: Mus musculus, ip.
Text: as §1

Experiment [3] concerns Brain Striatal Dopamine Synthesis. The experiment is described as follows: Effects on brain striatal dopamine synthesis in rats. It counts as in vivo. As to conditions: for inhibition in vivo at 10 mg/kg: Rattus norvegicus, ip.
Text: as §1

Setting [4] is: read-out: Inhibition of [^3 H]-Spiroperidol Binding IC50.

T1 sequence (P14416 whole entry): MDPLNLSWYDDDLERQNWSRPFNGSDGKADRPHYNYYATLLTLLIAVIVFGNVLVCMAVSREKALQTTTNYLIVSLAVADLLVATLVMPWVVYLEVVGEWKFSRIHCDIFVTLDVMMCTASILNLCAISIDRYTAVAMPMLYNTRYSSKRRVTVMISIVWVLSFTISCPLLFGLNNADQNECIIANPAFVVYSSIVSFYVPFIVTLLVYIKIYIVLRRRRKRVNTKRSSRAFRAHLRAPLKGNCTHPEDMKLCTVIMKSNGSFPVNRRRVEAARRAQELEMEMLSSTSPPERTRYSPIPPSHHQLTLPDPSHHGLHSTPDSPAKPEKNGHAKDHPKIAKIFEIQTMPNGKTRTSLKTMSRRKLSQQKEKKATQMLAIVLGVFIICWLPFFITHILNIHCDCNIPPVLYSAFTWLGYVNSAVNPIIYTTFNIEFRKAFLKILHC

`OC1(c2ccc(Cl)cc2)CCC(N2CCN(c3ccccn3)CC2)CC1` (stereo not drawn) [Example 1, trans-1-(4-Chlorophenyl)-4-[4-(2-pyridinyl)-1-piperazinyl]cyclohexanol]: in experiment [1] (setting [4]), the IC50 turned out to be 0.333 µM. Moreover, the “Inhibition of Locomotor Activity in Mice ED50” value (shortened to “Inhibition … in Mice ED50”) in experiment [2] worked out at 2.3 mg/kg.

Regarding `OC1(c2ccc(Cl)cc2)CCC(N2CCN(c3ccccn3)CC2)CC1` (stereo not drawn) [Example 1a, cis-1-(4-Chlorophenyl)-4-[4-(2-pyridinyl)-1-piperazinyl]cyclohexanol], the IC50 in experiment [1] (setting [4]) came to 0.816 µM. For the same compound, the “Inhibition … in Mice ED50” value in experiment [2] was determined as 0.86 mg/kg.

For `OC1(c2ccccc2)CCC(CCN2CCN(c3ccccn3)CC2)CC1` (centres unmarked) [Example 5, 1-Phenyl-4-[2-[4-(2-pyridinyl)-1-piperazinyl]ethyl]cyclohexanol], the IC50 in experiment [1] (setting [4]) is 0.537 µM. Also, the inhibition in vivo at 10 mg/kg in experiment [3] was 35%. In experiment [2], this compound displayed an ED50 of 1.8 mg/kg.

`OC1(c2ccccn2)CCC(CCN2CCN(c3ccccn3)CC2)CC1` (centres unmarked) [Example 6, 1-(2-Pyridinyl)-4-[2-[4-(2-pyridinyl)-1-piperazinyl]ethyl]cyclohexanol]: the IC50 in experiment [1] (setting [4]) came to 1.05 µM. In experiment [2], this compound displayed an ED50 of 0.34 mg/kg.

Take `COc1ccc(C2(O)CCC(CCN3CCN(c4ccccn4)CC3)CC2)cc1` (stereo not drawn) [Example 8, cis-1-(4-Methoxyphenyl)-4-[2-[4-(2-pyridinyl)-1-piperazinyl]ethyl]cyclohexanol]: the IC50 in experiment [1] (setting [4]) turned out to be 0.169 µM. The “Effects on Brain Striatal Dopamine Synthesis in Rats, % inhibition” value in experiment [3] (10 mg/kg, IP) is listed as 88%. In experiment [2], the “Inhibition … in Mice ED50” value turned out to be 0.9 mg/kg.

Take `OC1(c2nccs2)CCC(CCN2CCN(c3ccccn3)CC2)CC1` (centres unmarked) [Example 9, 4-[2-[4-(2-Pyridinyl)-1-piperazinyl]ethyl]-1-(2-thiazolyl)cyclohexanol]: the IC50 in experiment [1] (setting [4]) is 1.55 µM. This compound also had an ED50 in experiment [2] of 1 mg/kg.

Turning to `OC1(c2cccnc2)CCC(CCN2CCN(c3ccccn3)CC2)CC1` (centres unmarked) [Example 10, 1-(3-Pyridinyl)-4-[2-[4-(2-pyridinyl)-1-piperazinyl]ethyl]cyclohexanol], the IC50 in experiment [1] (setting [4]) was found to be 0.847 µM. In experiment [2], the 50% effect level (ED50) was put at a dose of 0.37 mg/kg.

`OC1(c2cccs2)CCC(CCN2CC=C(c3ccccc3)CC2)CC1` (stereo not drawn) [Example 13, cis-4-[2-(3,6-Dihydro-4-phenyl-1(2H)-pyridinyl)ethyl]-1-(2-thienyl)cyclohexanol] had an IC50 in experiment [1] (Inhibition of [^3 H]-Spiroperidol Binding IC50) of 0.051 µM. This compound also showed an ED50 in experiment [2] of 2 mg/kg.

As to `OC1(c2cccs2)CCC(CN2CCN(c3ccccn3)CC2)CC1` (stereo not drawn) [Example 16, trans-4-[[4-(2-Pyridinyl)-1-piperazinyl]methyl]-1-(2-thienyl)cyclohexanol], the ED50 in experiment [2] was 4.3 mg/kg.

For `OC1(c2cccs2)CCC(CN2CCN(c3ccccn3)CC2)CC1` (stereo not drawn) [Example 17, cis-4-[[4-(2-Pyridinyl)-1-piperazinyl]methyl]-1-(2-thienyl)cyclohexanol], the IC50 in experiment [1] (setting [4]) came out at 3.9 µM. For the same compound, in experiment [2], the “Inhibition … in Mice ED50” value is reported as 5.2 mg/kg.

Consider `OC1(c2ccccn2)CCC(N2CCN(c3ncccn3)CC2)CC1` (stereo not drawn) [Example 18, trans-1-(2-Pyridinyl)-4-[4-(2-pyrimidinyl)-1-piperazinyl]cyclohexanol], for which the “Inhibition … in Mice ED50” value in experiment [2] is reported as > 30 mg/kg.

For `OC1(c2ccccn2)CCC(N2CCN(c3ncccn3)CC2)CC1` (stereo not drawn) [Example 19, cis-1-(2-Pyridinyl)-4-[4-(2-pyrimidinyl)-1-piperazinyl]cyclohexanol], the “Inhibition … in Mice ED50” value in experiment [2] stood at 13.0 mg/kg.

In the case of `OC1(c2ccccn2)CCC(N2CCN(c3ccccn3)CC2)CC1` (stereo not drawn) [Example 20, trans-1-(2-Pyridinyl)-4-[4-(2-pyridinyl)-1-piperazinyl]cyclohexanol], in experiment [2], the “Inhibition … in Mice ED50” value is recorded as > 30 mg/kg.

As to `OC1(c2ccccn2)CCC(N2CCN(c3ccccn3)CC2)CC1` (stereo not drawn) [Example 21, cis-1-(2-Pyridinyl)-4-[4-(2-pyridinyl)-1-piperazinyl]cyclohexanol], in experiment [1] (setting [4]), the IC50 was 2.78 µM. Besides, the “Inhibition … in Mice ED50” value in experiment [2] is reported as 2.3 mg/kg.

Consider `OC1(c2cccnc2)CCC(N2CCN(c3ccccn3)CC2)CC1` (stereo not drawn) [Example 22, trans-1-(3-Pyridinyl)-4-[4-(2-pyridinyl)-1-piperazinyl]cyclohexanol], for which the IC50 in experiment [1] (setting [4]) came out at 12.5 µM. Moreover, the “Inhibition … in Mice ED50” value in experiment [2] was 30 mg/kg.

With `OC1(c2cccnc2)CCC(N2CCN(c3ccccn3)CC2)CC1` (stereo not drawn) [Example 23, cis-1-(3-Pyridinyl)-4-[4-(2-pyridinyl)-1-piperazinyl]cyclohexanol], the IC50 in experiment [1] (setting [4]) was found to be 1.16 µM. In addition, in experiment [2], the “Inhibition … in Mice ED50” value was found to be 1.6 mg/kg.

Consider `OC1(c2cccs2)CCC(N2CCN(c3ccccn3)CC2)CC1` (centres unmarked) [Example 24, 4-[4-(2-Pyridinyl)-1-piperazinyl]-1-(2-thienyl)cyclohexanol], for which, in experiment [2], the ED50 is > 30 mg/kg.

In the case of `OC1(c2ccsc2)CCC(N2CCN(c3ccccn3)CC2)CC1` (centres unmarked) [Example 25, 4-[4-(2-Pyridinyl)-1-piperazinyl]-1-(3-thienyl)cyclohexanol], the IC50 in experiment [1] (setting [4]) was 2.7 µM. In experiment [2], the ED50 was 2.4 mg/kg.

As to `COc1ccc(C2(O)CCC(N3CCN(c4ccccn4)CC3)CC2)cc1` (centres unmarked) [Example 26, 1-(4-Methoxyphenyl)-4-[4-(2-pyridinyl)-1-piperazinyl]cyclohexanol], in experiment [1] (setting [4]), the IC50 amounted to 0.67 µM. The 50% effect level in experiment [2] (ED50) was put at a dose of 0.3 mg/kg.

On to `OC1(c2ccccc2)CCC(N2CCN(c3ccccn3)CC2)CC1` (centres unmarked) [Example 27, 1-Phenyl-4-[4-(2-pyridinyl)-1-piperazinyl]cyclohexanol], for which the IC50 in experiment [1] (setting [4]) was determined as 1.66 µM. In experiment [2], the ED50 turned out to be 0.83 mg/kg.

In experiment [2], `OC1(c2ccccn2)CCC(N2CC=C(c3ccccc3)CC2)CC1` (centres unmarked) [Example 28, 4-(3,6-Dihydro-4-phenyl-1(2H)-pyridinyl)-1-(2-pyridinyl)cyclohexanol] registered an ED50 of 1.8 mg/kg.

For the compound `OC1(c2cccnc2)CCC(N2CC=C(c3ccccc3)CC2)CC1` (stereo not drawn) [Example 29, trans-4-(3,6-Dihydro-4-phenyl-1(2H)-pyridinyl)-1-(3-pyridinyl)cyclohexanol], in experiment [2], the “Inhibition … in Mice ED50” value is reported as 25.6 mg/kg.

For the compound `OC1(c2cccnc2)CCC(N2CC=C(c3ccccc3)CC2)CC1` (stereo not drawn) [Example 30, cis-4-(3,6-Dihydro-4-phenyl-1(2H)-pyridinyl)-1-(3-pyridinyl)cyclohexanol], in experiment [1] (setting [4]), the IC50 is 1.25 µM. Moreover, the “Inhibition … in Mice ED50” value in experiment [2] was determined as 1.3 mg/kg.

Take `COc1ccccc1C(=O)N[C@H]1CC[C@H](N2CCN(c3ccccn3)CC2)CC1` [Example 41, trans N-[4-[4-(2-Pyridinyl)-1-piperazinyl]cyclohexyl]-2-methoxybenzamide]: in experiment [1] (setting [4]), the IC50 is 0.53 µM. In addition, the ED50 in experiment [2] came out at 1.9 mg/kg.

Regarding `O=C(N[C@H]1CC[C@H](N2CCN(c3ccccn3)CC2)CC1)c1ccc(Cl)cc1` [Example 43, trans 4-Chloro-N-[4-[4-(2-pyridinyl)-1-piperazinyl]cyclohexyl]benzamide], the IC50 in experiment [1] (setting [4]) turned out to be 7.79 µM. Also, the ED50 in experiment [2] turned out to be 0.78 mg/kg.

As for `O=C(N[C@H]1CC[C@H](N2CCN(c3ccccn3)CC2)CC1)c1cccs1` [Example 44, trans N-[4-[4-(2-Pyridinyl)-1-piperazinyl]cyclohexyl]-2-thiophenecarboxamide], the IC50 in experiment [1] (setting [4]) turned out to be 2.52 µM. In experiment [2], this compound gave an ED50 of 0.29 mg/kg.

In the case of `O=C(N[C@H]1CC[C@H](N2CC=C(c3ccccc3)CC2)CC1)C1CCCCC1` [Example 50, trans N-[4-(3,6-Dihydro-4-phenyl-1(2H)-pyridinyl)cyclohexyl]cyclohexanecarboxamide], in experiment [1] (setting [4]), the IC50 was 1.6 µM. The compound also registered an ED50 in experiment [2] of 1.1 mg/kg.

With `Cc1ccc(C(=O)N[C@H]2CC[C@@H](CCN3CCN(c4ccccn4)CC3)CC2)cc1` [Example 55, cis 4-Methyl-N-[4-[2-[4-(2-pyridinyl)-1-piperazinyl]ethyl]cyclohexyl]benzamide], the IC50 in experiment [1] (setting [4]) was found to be 0.83 µM.

As to `O=C(N[C@H]1CC[C@@H](CCN2CCN(c3ccccn3)CC2)CC1)c1ccc(Cl)cc1` [Example 56, cis 4-Chloro-N-[4-[2-[4-(2-pyridinyl)-1-piperazinyl]ethyl]cyclohexyl]benzamide], in experiment [1] (setting [4]), the IC50 came to 1.62 µM. Besides, in experiment [2], it took a dose of 6.3 mg/kg to reach the 50% effect level (ED50).

As for `O=C(N[C@H]1CC[C@H](CCN2CCN(c3ccccn3)CC2)CC1)c1ccc(Cl)cc1` [Example 57, trans 4-Chloro-N-[4-[2-[4-(2-pyridinyl)-1-piperazinyl]ethyl]cyclohexyl]benzamide], in experiment [1] (setting [4]), the IC50 came out at 0.62 µM. Further, in experiment [2], the ED50 was found to be 0.51 mg/kg.

Turning to `CC(=O)N[C@H]1CC[C@H](CCN2CCN(c3ccccn3)CC2)CC1` [Example 58, trans N-[4-[2-[4-(2-Pyridinyl)-1-piperazinyl]ethyl]cyclohexyl]acetamide], the inhibition in vivo at 10 mg/kg in experiment [3] was 87%. In experiment [2], this compound gave an ED50 of 0.03 mg/kg.

In experiment [3], `O=C(N[C@H]1CC[C@H](CCN2CCN(c3ccccn3)CC2)CC1)c1ccc(Cl)c(Cl)c1` [Example 59, trans 3,4-Dichloro-N-[4-[2-[4-(2-pyridinyl)-1-piperazinyl]ethyl]cyclohexyl]benzamide] displayed an inhibition in vivo at 10 mg/kg of 7%. In experiment [2], this compound came in with an ED50 of 14.4 mg/kg.

`O=C(N[C@H]1CC[C@H](CN2CCN(c3ccccn3)CC2)CC1)c1ccccc1` [Example 60, trans N-[4-[[4-(2-Pyridinyl)-1-piperazinyl]methyl]cyclohexyl]benzamide]: the inhibition in vivo at 10 mg/kg in experiment [3] came out at 36%. This compound yielded an ED50 in experiment [2] of 1 mg/kg.

As for `O=C(N[C@H]1CC[C@@H](CCN2CC=C(c3ccccc3)CC2)CC1)c1ccccc1` [Example 69, cis N-[4-[2-(3,6-Dihydro-4-phenyl-1(2H)-pyridinyl)ethyl]cyclohexyl]benzamide], the ED50 in experiment [2] is 2.1 mg/kg.

`O=C(N[C@H]1CC[C@@H](CCN2CC=C(c3ccccc3)CC2)CC1)c1cccs1` [Example 70, cis N-[4-[2-(3,6-Dihydro-4-phenyl-1(2H)-pyridinyl)ethyl]cyclohexyl]-2-thiophenecarboxamide]: the IC50 in experiment [1] (setting [4]) amounted to 0.28 µM.
